Test results as given in PubChem BioAssay AID248 (DTP/NCI, 2004).
Toxic doses and inconclusive results are not listed. No stated cut-off is given here; in the data, active means T/C of 150% or more; inactive means T/C below 125%.

Test system: L1210 leukemia ip in BDF1 mice, survival T/C
Experiment: NCI In Vivo Anticancer Drug Screen. Data for tumor model L1210 Leukemia (intraperitoneal) in B6D2F1 (BDF1) mice
Settings: endpoint: mean survival time, higher = longer survival
How it was run: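 Survival endpoint. Drug-treated group vs vehicle group, expressed as T divided by C. Tumor passaged by transplantation.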

[1] = dose: 100.0 mg/kg/injection, schedule: Q01DX009 (ip), vehicle: saline with Tween-80
[2] = dose: 100.0 mg/kg/injection, schedule: Q01DX001 (ip), vehicle: saline
[3] = dose: 200.0 mg/kg/injection, schedule: Q01DX001 (ip), vehicle: saline
[4] = dose: 400.0 mg/kg/injection, schedule: Q01DX001 (ip), vehicle: saline
[5] = dose: 100.0 mg/kg/injection, schedule: Q01DX001 (ip), vehicle: carboxymethylcellulose (CMC)
[6] = dose: 200.0 mg/kg/injection, schedule: Q01DX001 (ip), vehicle: carboxymethylcellulose (CMC)
[7] = dose: 100.0 mg/kg/injection, schedule: Q01DX009 (ip), vehicle: Klucel (hydroxypropylcellulose) (HPC)
[8] = dose: 200.0 mg/kg/injection, schedule: Q01DX009 (ip), vehicle: Klucel (hydroxypropylcellulose) (HPC)
[9] = dose: 400.0 mg/kg/injection, schedule: Q01DX009 (ip), vehicle: Klucel (hydroxypropylcellulose) (HPC)
[10] = dose: 100.0 mg/kg/injection, schedule: Q04DX002 (ip), vehicle: saline with Tween-80
[11] = dose: 200.0 mg/kg/injection, schedule: Q04DX002 (ip), vehicle: saline with Tween-80
[12] = dose: 50.0 mg/kg/injection, schedule: Q01DX009 (ip), vehicle: saline
[13] = dose: 100.0 mg/kg/injection, schedule: Q01DX009 (ip), vehicle: saline
[14] = dose: 200.0 mg/kg/injection, schedule: Q01DX009 (ip), vehicle: saline
[15] = dose: 12.5 mg/kg/injection, schedule: Q01DX009 (ip), vehicle: saline
[16] = dose: 12.5 mg/kg/injection, schedule: Q04DX003 (ip), vehicle: saline
[17] = dose: 25.0 mg/kg/injection, schedule: Q01DX009 (ip), vehicle: saline
[18] = dose: 25.0 mg/kg/injection, schedule: Q04DX003 (ip), vehicle: saline
[19] = dose: 50.0 mg/kg/injection, schedule: Q04DX003 (ip), vehicle: saline
[20] = dose: 400.0 mg/kg/injection, schedule: Q01DX001 (ip), vehicle: carboxymethylcellulose (CMC)
[21] = dose: 100.0 mg/kg/injection, schedule: Q04DX003 (ip), vehicle: Klucel (hydroxypropylcellulose) (HPC)
[22] = dose: 200.0 mg/kg/injection, schedule: Q04DX003 (ip), vehicle: Klucel (hydroxypropylcellulose) (HPC)
[23] = dose: 400.0 mg/kg/injection, schedule: Q04DX003 (ip), vehicle: Klucel (hydroxypropylcellulose) (HPC)
[24] = dose: 100.0 mg/kg/injection, schedule: Q01DX005 (ip), vehicle: saline
[25] = dose: 100.0 mg/kg/injection, schedule: Q04DX003 (ip), vehicle: saline
[26] = dose: 200.0 mg/kg/injection, schedule: Q01DX005 (ip), vehicle: saline

Measured: T/C

OC1C2CC3C1C3C2O (stereo not drawn)
inactive: [1] 94 % of control | dose: 200.0 mg/kg/injection, schedule: Q01DX009 (ip), vehicle: saline with Tween-80 94 % of control | dose: 400.0 mg/kg/injection, schedule: Q01DX009 (ip), vehicle: saline with Tween-80 97 % of control

C/C=C(\Nc1ccc([N+](=O)[O-])cc1[N+](=O)[O-])C(=O)OC
inactive: [2] 101 % of control | [3] 98 % of control | [4] 101 % of control

C[N+]1(N[P+](=O)NN2CCCCC2)CCCCC1 (stereo not drawn)
inactive: [5] 98 % of control | [6] 104 % of control

Cc1ccc(NC(=O)Oc2cccc(C(F)(F)F)c2)cc1
inactive: [7] 100 % of control | [8] 98 % of control | [9] 100 % of control

Cc1ccc(S(=O)(=O)N2CC(O)C(O)C2Cn2cnc3c(N)ncnc32)cc1 (stereo not drawn)
inactive: dose: 50.0 mg/kg/injection, schedule: Q04DX002 (ip), vehicle: saline 96 % of control | dose: 100.0 mg/kg/injection, schedule: Q04DX002 (ip), vehicle: saline 102 % of control | dose: 200.0 mg/kg/injection, schedule: Q04DX002 (ip), vehicle: saline 102 % of control

CN(C)CCC(O)C(c1ccccc1)c1ccccc1 (stereo not drawn)
inactive: dose: 75.0 mg/kg/injection, schedule: Q01DX001 (ip), vehicle: saline 100 % of control | dose: 150.0 mg/kg/injection, schedule: Q01DX001 (ip), vehicle: saline 102 % of control

O=C1OC(c2cccc(Cl)c2)=N/C1=C\c1cc(Br)ccc1O
inactive: [10] 89 % of control | [11] 96 % of control | dose: 400.0 mg/kg/injection, schedule: Q04DX002 (ip), vehicle: saline with Tween-80 89 % of control

OCC1SC(O)C(O)C(O)C1O (stereo not drawn)
inactive: [12] 102 % of control | dose: 50.0 mg/kg/injection, schedule: Q01DX009 (oral), vehicle: saline 100 % of control | [13] 102 % of control | dose: 100.0 mg/kg/injection, schedule: Q01DX009 (oral), vehicle: saline 102 % of control | [14] 112 % of control | dose: 200.0 mg/kg/injection, schedule: Q01DX009 (oral), vehicle: saline 98 % of control | dose: 400.0 mg/kg/injection, schedule: Q01DX009 (ip), vehicle: saline 109 % of control | dose: 400.0 mg/kg/injection, schedule: Q01DX009 (oral), vehicle: saline 96 % of control

COc1ccn(C)c(=O)n1
inactive: [15] 112 % of control | [16] 110 % of control | [17] 93 % of control | [18] 91 % of control | [19] 96 % of control

Nc1cccc(C(=O)c2cccc(N)c2)c1
inactive: [5] 96 % of control | [6] 94 % of control | [20] 88 % of control

C/C(=C/C=C(/C)C(=O)O)C(=O)O
inactive: [5] 95 % of control | [21] 101 % of control | [6] 95 % of control | [22] 115 % of control | [20] 98 % of control | [23] 93 % of control

O=C1C[N+]2(CCCCC2)c2ccc(Cl)cc2N1
inactive: dose: 6.25 mg/kg/injection, schedule: Q01DX009 (ip), vehicle: saline 87 % of control | dose: 6.25 mg/kg/injection, schedule: Q04DX003 (ip), vehicle: saline 91 % of control | [15] 92 % of control | [16] 91 % of control | [17] 95 % of control | [18] 93 % of control

O=C(O)C1(Cl)C2(Cl)C(Cl)=CC3(Cl)C(Cl)(C(=O)O)C2(Cl)C31Cl (stereo not drawn)
inactive: dose: 50.0 mg/kg/injection, schedule: Q01DX001 (ip), vehicle: saline 108 % of control | [2] 103 % of control | [3] 101 % of control | [4] 97 % of control

O=S(=O)(O)c1cc(O)c2c(N=Nc3c(S(=O)(=O)O)cc4cc(S(=O)(=O)O)cc(N=Nc5c(S(=O)(=O)O)cc6cc(S(=O)(=O)O)cc(O)c6c5O)c4c3O)cc(S(=O)(=O)O)cc2c1
inactive: dose: 100.0 mg/kg/injection, schedule: Q04DX003 (ip), vehicle: saline with Tween-80 94 % of control | dose: 200.0 mg/kg/injection, schedule: Q04DX003 (ip), vehicle: saline with Tween-80 96 % of control | dose: 400.0 mg/kg/injection, schedule: Q04DX003 (ip), vehicle: saline with Tween-80 96 % of control

O=S(Cc1ncc2cnccn12)c1ccccc1 (stereo not drawn)
inactive: dose: 50.0 mg/kg/injection, schedule: Q01DX005 (ip), vehicle: saline 110 % of control | [24] 104 % of control | [25] 101 % of control | [26] 104 % of control | dose: 200.0 mg/kg/injection, schedule: Q04DX003 (ip), vehicle: saline 105 % of control | dose: 400.0 mg/kg/injection, schedule: Q01DX005 (ip), vehicle: saline 105 % of control | dose: 400.0 mg/kg/injection, schedule: Q04DX003 (ip), vehicle: saline 105 % of control

C=CCOP(OCC=C)OCC=C
inactive: [17] 103 % of control | [12] 103 % of control | [19] 97 % of control | [13] 87 % of control | [25] 101 % of control

C/C(=N/O)c1ccncc1
inactive: [21] 100 % of control | [22] 95 % of control | [23] 95 % of control

ClC1C2CC3C1C3C2C(Cl)(Cl)Cl (stereo not drawn)
inactive: dose: 100.0 mg/kg/injection, schedule: Q04DX002 (ip), vehicle: Klucel (hydroxypropylcellulose) (HPC) 103 % of control | dose: 200.0 mg/kg/injection, schedule: Q04DX002 (ip), vehicle: Klucel (hydroxypropylcellulose) (HPC) 100 % of control | dose: 400.0 mg/kg/injection, schedule: Q04DX002 (ip), vehicle: Klucel (hydroxypropylcellulose) (HPC) 90 % of control

Oc1ccc(Cl)cc1C=Nc1cnc2ccccc2c1
inactive: [5] 88 % of control | [20] 101 % of control

CCCCOP(=O)(NC1CCCCC1)OCCCC
inactive: dose: 50.0 mg/kg/injection, schedule: Q04DX002 (ip), vehicle: saline with Tween-80 107 % of control | [10] 96 % of control | [11] 104 % of control

CO/[N+]([O-])=C\C(=O)N/C=C/C(=O)O
inactive: dose: 13.3 mg/kg/injection, schedule: Q01DX Z (ip), vehicle: carboxymethylcellulose (CMC) 93 % of control | dose: 20.0 mg/kg/injection, schedule: Q01DX Z (ip), vehicle: carboxymethylcellulose (CMC) 101 % of control

C/C(Cc1cc(C)[nH]c(=S)n1)=N\NC(N)=O
inactive: dose: 50.0 mg/kg/injection, schedule: Q01DX009 (ip), vehicle: saline with Tween-80 92 % of control | [1] 92 % of control

CC1(C)C2CCC1(C)C(NCc1cc(Br)cc(Br)c1O)C2 (stereo not drawn)
inactive: [21] 92 % of control | [22] 97 % of control | [23] 98 % of control

CC(=O)NCCOc1ccc([N+](=O)[O-])cc1
inactive: dose: 100.0 mg/kg/injection, schedule: Q01DX001 (ip), vehicle: Klucel (hydroxypropylcellulose) (HPC) 102 % of control | dose: 200.0 mg/kg/injection, schedule: Q01DX001 (ip), vehicle: Klucel (hydroxypropylcellulose) (HPC) 102 % of control | dose: 400.0 mg/kg/injection, schedule: Q01DX001 (ip), vehicle: Klucel (hydroxypropylcellulose) (HPC) 102 % of control

Cc1ccc(S(=O)(=O)OC2CCC(OS(=O)(=O)c3ccc(C)cc3)C3CCCCC23)cc1 (stereo not drawn)
inactive: [5] 88 % of control | [6] 90 % of control | [20] 88 % of control

CNCCN1CCC(Cc2ccccc2)CC1
inactive: [12] 112 % of control | [13] 102 % of control | [14] 121 % of control

COC(=O)c1cc(=O)[nH]c2c1c(=O)n(C)c(=O)n2C
inactive: [21] 95 % of control | [8] 97 % of control | [22] 90 % of control | [9] 97 % of control | [23] 94 % of control

O=C(OCC1OC(n2ccc(=O)nc2[Se])C(OC(=O)c2ccccc2)C1OC(=O)c1ccccc1)c1ccccc1 (stereo not drawn)
inactive: [24] 89 % of control | [26] 96 % of control

Nc1ccc(Cl)c(C(=O)O)c1
inactive: [7] 111 % of control | [8] 121 % of control | [9] 105 % of control
